Source: US10183027B2, “Lanthanide toolbox for multi-modal, non-invasive tumor specific theranostic prodrugs” (priority 2016, dated 2019)

Assays:
Plasmid DNA [1] = assay: Agarose gel electrophoresis of plasmid DNA with RuEuL / EuL; assay type: biochemical; conditions: 20 μM
Method: Furthermore, the interaction of photo-activated RuEuL with DNA was examined by agarose gel electrophoresis (FIG. 24). Plasmid DNA (22.5 μg/mL in Tris/EDTA (TE) buffer) was incubated with the compounds (20 μM), irradiated by 488 nm light (dose 50 J m^−2) or not (control) and then subjected to 1% agarose gel electrophoresis. The separated DNA was stained with GelRed Nucleic Acid Stain (BIOTIUM) and imaged using Tanon 1600 Gel Imaging System (Tanon Science & Technology Co., Ltd).

HeLa cells [2] = assay: Dark and photo cytotoxicity of RuEuL against HeLa cells; assay type: cell-based, human
Method: To determine the potential of RuEuL as a photo-controlled prodrug cell cytotoxicity studies were performed on human cervical cancer (HeLa) cells, and EuL as control (FIGS. 25A and 25B). Cells were incubated 6 hours in the dark before irradiation (488 nm, 1 J); dark controls were run in parallel.

HeLa = assay: Dark cytotoxicity of Eu(III) complexes on HeLa cells; assay type: cell-based
A549 = assay: Dark cytotoxicity of Eu(III) complexes on A549 cells; assay type: cell-based
Plasmid DNA [3] = assay: Agarose gel electrophoresis of plasmid DNA after UVA irradiation (PtEuL); assay type: biochemical; conditions: 20 μM, UVA light dose 50 J m^−2
Text: The DNA gel images were obtained using GelRed Nucleic Acid Stain (BIOTIUM).
(§1) Direct binding of PtEuL with DNA in dark were studied by circular dichroism (CD). […] The interaction of photo-activated PtEuL with DNA was examined by agarose gel electrophoresis (FIG. 29B). After UVA irradiation with PtEuL, conversion of the supercoiled conformer of the plasmid DNA to its open-circular conformer, which indicates DNA nicking (single strand break) and linear conformer, which indicates double strand break, is clearly seen.

HeLa cells [4] = assay: Two-photon confocal microscopy of HeLa cells with PtEuL / EuL; assay type: cell-based
Method: Near infrared (NIR) excitation has increasingly been used in live cell imaging and photodynamic or photoactivated chemo-therapy because NIR photon (λ=650-900 nm) can penetrate deeper into tissues with pinpoint accuracy and little collateral photodamage. The two-photon photophysical properties of some antenna ligands of lanthanide complexes have been studied previously. The two-photon induced cytotoxicity of the EuL and PtEuL complexes towards HeLa cells after incubation at different dose concentrations (PtEuL: 0, 1, 2, 5, 10 μM; EuL: 0, 10, 20, 50, 100 μM) for 24 hours was studied using two-photon (λex=730 nm) confocal microscopy (FIGS. 30A-30C and FIGS. 33A and 33B). […] This is probably due to the lower cellular uptake rate of EuL because we no Eu emission was observed from the HeLa cells even after incubation in 100 μM of EuL, ceteris paribus.

[5] = Photo-induced dissociation of the cisplatin unit in tris buffer monitored by emission; assay type: physicochemical
Method: One of the key issues is the photodissociation level of the Pt moiety from the compounds described herein. The triplet states of the chromophores before and after photo-release the drug or upon binding with αvβ3 isoform were measured. Based on the synthetic protocols described herein, La (lanthanum) and Gd (gadolinium) analogs can be synthesized to measure the triplet states of the chromophores as well. The measurements of the triplet states of these chromophores phosphorescence and their phosphorescence lifetime was undertaken at low temperature (77K). The photodissociation kinetics of PtEuL were investigated by monitoring the emission spectrum with different irradiation times of UVA/NIR (light dosage=4 J cm^−2). The plot of responsive and initial emission intensity at 615 nm (^5D0→^7F2) vs time will be fitted in the exponential growth and decay equation to obtain the pseudo-first order rate constant.
The linear light induced dissociation of PtGdL in tris buffer (20 mM Tris base, 50 mM NaCl, pH 7.4) was monitored by determination of the emission intensity of solution of PtGdL in tris buffer with different light dosage of 365 nm UV light. In general, 3 mL of the solution of PtGdL (3 μM in tris buffer) in a 3.5 mL quartz cuvette was irradiated with a 365 nm UV lamp (5 mW) with stirring. The emission spectra of the solution were recorded at different time points (0, 1, 3, 5, 7, 10, 15, 20, 30, 45, 60, 75 and 90 min).
(Ln=Eu or Gd). The solution-state electronic adsorption and emission spectra of all the complexes and the ligand were recorded at 298 K (FIGS. 28A-28D). The EuL complex is the product of PtEuL after photo-dissociation and was used to monitor the photo-dissociation of [Pt—(NH3)2Cl]^+ from PtEuL. […] The photo-dissociation of PtEuL (3 μM in Tris-buffer, pH=7.4, 50 mM NaCl) was monitored by the variation of the Eu emission (λem=615 nm, ^5D0→^7F2) with the irradiation time. […] The pseudo-first order rate constant k was determined to be 0.53 min^−1 under these experimental conditions (FIG. 28D).

HeLa cells [6] = assay: Confocal microscopy of light-induced cytotoxicity of RuEuL; assay type: cell-based, human; conditions: 50 μM RuEuL or 10 μM PtEuL, 6 hours, 7 mW
Text: The light-induced cytotoxicity of RuEuL towards HeLa cells was also investigated by confocal microscopy (FIG. 26B) with the PtEuL complex tested under identical conditions for comparison. […] In cell culture studies, red Eu(III) emission from RuEuL was observed after 15-min irradiation. (FIG. 26A) The emission intensity increased with longer irradiation time because more excitation energy induced the dissociation of more Ru(II) moieties from the parent molecules, and the resulting EuL units generated stronger light emission. […] PtEuL is photo-activated upon ultraviolet A irradiation (λ=365 nm). However, UVA irradiation could cause severe adverse effects on human cells.

Plasmid DNA [7] = assay: Circular dichroism of plasmid DNA with PtEuL in dark; assay type: binding; conditions: 50 μM, 37° C., 12 h
Text: as §1

[8] = mean ± SD of three independent experiments

| Structure (SMILES) | interaction with DNA (Plasmid DNA [1]) | toxicity towards HeLa cells (HeLa cells [2]; control) | toxicity towards HeLa (HeLa; identical conditions) | toxicity towards A549 (A549; identical conditions) | DNA photocleavage activity (Plasmid DNA [3]) | red emission from treated cells (HeLa cells [4]; identical conditions, up to 100 μM) | pseudo-first order rate constant k (I/I0 @ 615 nm vs. time) ([5]; 3 μM in Tris-buffer pH 7.4, 50 mM NaCl, UVA 365 nm) | pseudo-first order rate constant k for the dissociation of the cisplatin unit ([5]; tris buffer pH 7.4, UV 365 nm, 5 mW) | IC50 (HeLa cells [2]; HeLa, 6 hours in the dark then irradiation (488 nm, 1 J), read-out: light IC50) | cell damage and red emission on 488 nm laser irradiation (HeLa cells [6]) | IC50 (HeLa; [8]) | IC50 (A549; [8]) | direct binding with DNA in dark (CD) (Plasmid DNA [7]) | concentration at which red emission was observed in the cell (HeLa cells [4]; 24 hours incubation, 30 min intermittent two-photon excitation 730 nm) |
| --- | --- | --- | --- | --- | --- | --- | --- | --- | --- | --- | --- | --- | --- | --- |
| O.O=C([O-])CN1CCN(CC(=O)[O-])CCN(Cc2cc(C#Cc3ccc(NC(=O)c4ccncc4)cc3)ccn2)CCN(CC(=O)[O-])CC1.[Eu+3] [EuL] | does not interact with DNA | almost no toxicity | no toxicity | no toxicity | not at all | no red emission was detected | – | – | – | – | – | – | – | – |
| O.O=[N+]([O-])[O-].[Eu+3].[NH3+][Pt-2]([NH3+])([Cl])[n+]1ccc(C(=O)Nc2ccc(C#Cc3ccnc(CN4CCN(CC(=O)[O-])CCN(CC(=O)[O-])CCN(CC(=O)[O-])CC4)c3)cc2)cc1 [PtEuL] | – | – | – | – | strong DNA photocleavage activity | – | 0.53 min⁻¹ | 0.053 min⁻¹ | 22.9 µM | no red emission or cell death | 22.5 ± 0.5 µM | 49.5 ± 0.1 µM | can directly bind to DNA and unwind its helix | > 2 µM |
